# Tests used:
# Type in all cases: in vivo
# Commelina benghalensis = assay: Example 4 post-emergence application A-1, B and C-19, COMBE; settings: growth stage 13, 21 DAT, g ai/ha: A-1 1, B 50, C-19 30
# Method: In the examples below, using the method of S. R. Colby (1967) “Calculating synergistic and antagonistic responses of herbicide combinations”, Weeds 15, p. 22ff., the value E, which is expected if the activity of the individual active compounds is only additive, was calculated:
# [formula] • where • X=percent activity using active herbicide A at an application rate a; • Y=percent activity using active herbicide B (e.g. mesotrione) at an application rate b; • E=expected activity (in %) by A+B at application rates a+b.
# If the value found experimentally is higher than the value E calculated according to Colby, a synergistic effect is present.
# Evaluation was carried out using a scale from 0 to 100. 100 means no emergence of the plants, or complete destruction of at least the above-ground parts, and 0 means no damage or normal course of growth. A good herbicidal activity is given at values of at least 70, and very good herbicidal activity is given at values of at least 85.
# Post-Emergence Application of Herbicide A-1 (A-1), Mesotrione (B) and Pyroxasulfone (C-19)
# Herbicide A-1 (342 g/l), mesotrione (100 g/l) and pyroxasulfone (500 g/l) were, together with addition of 0.5 v/v % MSO (methylated sed oil) as adjuvant, formulated in water as distribution medium (water volume 200 l/ha) and sprayed with commercial flat fan nozzles.
# Amaranthus retroflexus = assay: Example 3 post-emergence field trial, AMARE; settings: height 10-12 cm; for % herbicidal activity A-1 / % herbicidal activity B: 42 DAT
# Method: (§1) In the examples below, using the method of S. R. Colby (1967) “Calculating synergistic and antagonistic responses of herbicide combinations”, Weeds 15, p. 22ff., the value E, which is expected if the activity of the individual active compounds is only additive, was calculated: [formula] • where • X=percent activity using active herbicide A at an application rate a; • Y=percent activity using active herbicide B (e.g. mesotrione) at an application rate b; • E=expected activity (in %) by A+B at application rates a+b. If the value found experimentally is higher than the value E calculated according to Colby, a synergistic effect is present. Evaluation was carried out using a scale from 0 to 100. 100 means no emergence of the plants, or complete destruction of at least the above-ground parts, and 0 means no damage or normal course of growth. A good herbicidal activity is given at values of at least 70, and very good herbicidal activity is given at values of at least 85. Post-Emergence Application of Herbicide A-1 (A-1) and Mesotrione (B) in Field Trials Herbicide A-1 (342 g/l) and mesotrione (100 g/l) were, together with addition of 0.5 v/v % MSO (methylated sed oil) as adjuvant, formulated in water as distribution medium (water volume 200 l/ha) and sprayed with commercial flat fan nozzles.
# Eleusine indica = assay: Example 1 post-emergence greenhouse trial, ELEIN; settings: growth stage 14, 21 DAT
# Method: In the examples below, using the method of S. R. Colby (1967) “Calculating synergistic and antagonistic responses of herbicide combinations”, Weeds 15, p. 22ff., the value E, which is expected if the activity of the individual active compounds is only additive, was calculated: [formula] • where • X=percent activity using active herbicide A at an application rate a; • Y=percent activity using active herbicide B (e.g. mesotrione) at an application rate b; • E=expected activity (in %) by A+B at application rates a+b. If the value found experimentally is higher than the value E calculated according to Colby, a synergistic effect is present. The culture containers used were plastic pots containing loamy sand with approximately 3.0% of humus as substrate. The seeds of the test plants were sown separately for each species. For the post-emergence treatment, the test plants were grown to a plant height of from 3 to 15 cm, depending on the plant habit, and only then treated with the active compounds which had been suspended or emulsified in water. To this end, the test plants were either sown directly, and grown in the same containers, or they were first grown separately as seedlings and transplanted into the test containers a few days prior to treatment. Depending on the species, the plants were kept at 10-25° C. and 20-35° C., respectively. The test period extended over 2 to 4 weeks. During this time, the plants were tended and their response to the individual treatments was evaluated. Evaluation was carried out using a scale from 0 to 100. 100 means no emergence of the plants, or complete destruction of at least the above-ground parts, and 0 means no damage or normal course of growth. A good herbicidal activity is given at values of at least 70, and very good herbicidal activity is given at values of at least 85. Post-Emergence Application of Herbicide A-1 (A-1) and Mesotrione (B) in Greenhouse Trials Herbicide A-1 (50 g/l) and mesotrione (480 g/l) were, together with addition of 1 v/v % MSO (methylated sed oil) as adjuvant, formulated in water as distribution medium (water volume 200 l/ha) and sprayed with commercial flat fan nozzles.
# Zea mays = assay: Example 3 post-emergence field trial, ZEAMX
# Method: as §1
# Digitaria sanguinalis = assay: Example 3 post-emergence field trial, DIGSA; settings: height 10-15 cm; for % herbicidal activity A-1 / % herbicidal activity B: 42 DAT
# Method: as §1
# [1] = 7 DAT, g ai/ha: A-1 12.5, B 105
# [2] = 7 DAT, g ai/ha: A-1 12.5, B 210
# [3] = 21 DAT, g ai/ha: A-1 12.5, B 210
# [4] = height 27-33 cm, 7 DAT, g ai/ha: A-1 12.5, B 105
# [5] = height 27-33 cm, 7 DAT, g ai/ha: A-1 12.5, B 210
# [6] = height 27-33 cm, 7 DAT, g ai/ha: A-1 18, B 105
# [7] = height 27-33 cm, 7 DAT, g ai/ha: A-1 18, B 210
# [8] = height 27-33 cm, 21 DAT, g ai/ha: A-1 12.5, B 105
# [9] = height 27-33 cm, 21 DAT, g ai/ha: A-1 12.5, B 210
# [10] = height 27-33 cm, 21 DAT, g ai/ha: A-1 18, B 105
# [11] = height 27-33 cm, 21 DAT, g ai/ha: A-1 18, B 210
# [12] = height 27-33 cm, 28 DAT, g ai/ha: A-1 12.5, B 105
# [13] = height 27-33 cm, 28 DAT, g ai/ha: A-1 12.5, B 210
# [14] = height 27-33 cm, 28 DAT, g ai/ha: A-1 18, B 105
# [15] = height 27-33 cm, 28 DAT, g ai/ha: A-1 18, B 210
# [16] = height 40-60 cm, 7 DAT, g ai/ha: A-1 12.5, B 105
# [17] = height 40-60 cm, 7 DAT, g ai/ha: A-1 12.5, B 210
# [18] = height 40-60 cm, 7 DAT, g ai/ha: A-1 18, B 105
# [19] = height 40-60 cm, 7 DAT, g ai/ha: A-1 18, B 210
# [20] = 21 DAT, g ai/ha: A-1 12.5, B 105
Structure (SMILES),% herbicidal activity (Commelina benghalensis),% herbicidal activity (Amaranthus retroflexus; [1]),% herbicidal activity (Amaranthus retroflexus; [2]),"% herbicidal activity (Amaranthus retroflexus; 7 DAT, g ai/ha: A-1 18, B 105)","% herbicidal activity (Amaranthus retroflexus; 7 DAT, g ai/ha: A-1 18, B 210)",% herbicidal activity (Amaranthus retroflexus; [3]),"% herbicidal activity (Amaranthus retroflexus; 21 DAT, g ai/ha: A-1 18, B 105)","% herbicidal activity (Amaranthus retroflexus; 21 DAT, g ai/ha: A-1 18, B 210)","% herbicidal activity (Eleusine indica; g ai/ha: A-1 2, B 62.5)","% herbicidal activity (Eleusine indica; g ai/ha: A-1 4, B 62.5)",% herbicidal activity (Zea mays; [4]),% herbicidal activity (Zea mays; [5]),% herbicidal activity (Zea mays; [6]),% herbicidal activity (Zea mays; [7]),% herbicidal activity (Zea mays; [8]),% herbicidal activity (Zea mays; [9]),% herbicidal activity (Zea mays; [10]),% herbicidal activity (Zea mays; [11]),% herbicidal activity (Zea mays; [12]),% herbicidal activity (Zea mays; [13]),also measured
"CCOC(=O)COc1ccccc1Oc1nc(-n2c(=O)cc(C(F)(F)F)n(C)c2=O)c(F)cc1Cl [A-1, ethyl 2-[2-[[3-chloro-5-fluoro-6-[3-methyl-2,6-dioxo-4-(trifluoromethyl)pyrimidin-1-yl]-2-pyridyl]oxy]phenoxy]acetate]",80%,85%,80%,93%,90%,80%,80%,75%,95%,95%,30%,45%,40%,55%,80%,85%,90%,80%,80%,80%,"% herbicidal activity A-1 (Amaranthus retroflexus; A-1 12.5 g ai/ha): 80%; % herbicidal activity A-1 (Amaranthus retroflexus; A-1 18 g ai/ha): 85%; % herbicidal activity (Zea mays; [14]): 88%; % herbicidal activity (Zea mays; [15]): 85%; % herbicidal activity (Zea mays; [16]): 85%; % herbicidal activity (Zea mays; [17]): 85%; % herbicidal activity (Zea mays; [18]): 85%; % herbicidal activity (Zea mays; [19]): 85%; % herbicidal activity A-1 (Digitaria sanguinalis; A-1 12.5 g ai/ha): 65%; % herbicidal activity A-1 (Digitaria sanguinalis; A-1 18 g ai/ha): 70%; % herbicidal activity (Digitaria sanguinalis; [1]): 80%; % herbicidal activity (Digitaria sanguinalis; 7 DAT, g ai/ha: A-1 18, B 105): 80%; % herbicidal activity (Digitaria sanguinalis; [20]): 70%; % herbicidal activity (Digitaria sanguinalis; 21 DAT, g ai/ha: A-1 18, B 105): 80%"
"CS(=O)(=O)c1ccc(C(=O)C2C(=O)CCCC2=O)c([N+](=O)[O-])c1 [B, mesotrione]",90%,65%,65%,65%,65%,65%,65%,65%,50%,50%,0%,0%,0%,0%,0%,0%,0%,0%,0%,0%,"% herbicidal activity B (Amaranthus retroflexus; B 210 g ai/ha (row with A-1 12.5)): 65%; % herbicidal activity B (Amaranthus retroflexus; B 210 g ai/ha (row with A-1 18)): 80%; % herbicidal activity (Zea mays; [14]): 0%; % herbicidal activity (Zea mays; [15]): 0%; % herbicidal activity (Zea mays; [16]): 5%; % herbicidal activity (Zea mays; [17]): 5%; % herbicidal activity (Zea mays; [18]): 5%; % herbicidal activity (Zea mays; [19]): 5%; % herbicidal activity B (Digitaria sanguinalis; B 105 g ai/ha): 55%; % herbicidal activity B (Digitaria sanguinalis; B 210 g ai/ha): 70%; % herbicidal activity (Digitaria sanguinalis; [1]): 50%; % herbicidal activity (Digitaria sanguinalis; 7 DAT, g ai/ha: A-1 18, B 105): 50%; % herbicidal activity (Digitaria sanguinalis; [20]): 65%; % herbicidal activity (Digitaria sanguinalis; 21 DAT, g ai/ha: A-1 18, B 105): 65%"

# Reference: patent US12543736B2, “Herbicidal compositions comprising mesotrione” (BASF SE, priority 2024, dated 2026)
